Where two headings read alike, the source gives them in different places.
Key:
[1] = system: cerebral oedema induced by triethyl tin (TET) in the rat; conditions: in vivo
[2] = rat, in vivo; for weight gain (in words): po, 50 mg/kg/day
[3] = system: cerebral oedema induced by triethyl tin (TET) chloride in the rat; conditions: administered during the intoxication with tin, measured after 5 days (Linee et al., 1984); cited from earlier work

Compound	weight of the dried brain ([1]; po)	Variation in percentage ([1]; po, 50 mg/kg/day) [%]	weight gain (in words) [2]	activity in the preventive protocol [3]	further results
CC1(c2ccccc2)OC(N)=Nc2ccc(Cl)cc21 (stereo not drawn) [desethyl-etifoxine, 2-amino-6-chloro-4-methyl-4-phenyl-4H-[3,1]benzoxazine]	do not modify this parameter significantly	−0.09	does not disrupt the weight gain	–	Variation in percentage [1]: +0.39%
CCNC1=Nc2ccc(Cl)cc2C(C)(c2ccccc2)O1.Cl (stereo not drawn) [etifoxine, 6-chloro-2-ethylamino-4-methyl-4-phenyl-4H-[3,1]benzoxazine hydrochloride]	do not modify this parameter significantly	−0.30	does not disrupt weight gain	–	Variation in percentage ([1]; po, 100 mg/kg/day): −0.07%; Body weight in grams (mean ± s.e.m.) [2]: 251 ± 4 grams
CC[C@]12CCCN3CCc4c(n(c5ccccc45)[C@@](O)(C(=O)OC)C1)[C@@H]32 [vincamine]	–	–	–	active	–
(−)eburnamonine	–	–	–	active	–
dihydroergotoxin	–	–	–	active	–
